The text below walks through data of paper PMC11022729 (Advanced Science, 2024).

In data set [1] the test system is mice. Nature of the data set: Von Frey filament test. It is filed as in vivo. Conditions: 10 mg kg−1 i.p., hindpaws, vs vehicle.
Data set [2] relates to mice. Kind of data set: Observation of mouse behavior / signs of toxicity after systemic administration. It is filed as in vivo. An excerpt:
To prepare for in vivo studies, we investigated the pharmacokinetic properties of compound 6. […] For comparison, we determined the plasma and brain loxapine levels. […] Collectively, the pharmacological and pharmacokinetic profiles of compound 6 make it an excellent molecule for in vivo pharmacodynamic studies.
With regard to the safety profile, it should be considered that Slack is expressed in various neuronal populations in the CNS, and gain‐of‐function mutations of KCNT1 have been associated with epileptic encephalopathies in humans.^[ [46] ^] Limited information exists concerning the incidence of seizures during loxapine treatment. […] However, the epileptogenic potential of brain‐penetrant Slack activators such as compound 6 should be carefully assessed in the future.

The target in the next data set is T1, human Slack (Homo sapiens, UniProt Q5JUK3).
T1 construct: host or cells: HEK293
T1 sequence (Q5JUK3 1-1230): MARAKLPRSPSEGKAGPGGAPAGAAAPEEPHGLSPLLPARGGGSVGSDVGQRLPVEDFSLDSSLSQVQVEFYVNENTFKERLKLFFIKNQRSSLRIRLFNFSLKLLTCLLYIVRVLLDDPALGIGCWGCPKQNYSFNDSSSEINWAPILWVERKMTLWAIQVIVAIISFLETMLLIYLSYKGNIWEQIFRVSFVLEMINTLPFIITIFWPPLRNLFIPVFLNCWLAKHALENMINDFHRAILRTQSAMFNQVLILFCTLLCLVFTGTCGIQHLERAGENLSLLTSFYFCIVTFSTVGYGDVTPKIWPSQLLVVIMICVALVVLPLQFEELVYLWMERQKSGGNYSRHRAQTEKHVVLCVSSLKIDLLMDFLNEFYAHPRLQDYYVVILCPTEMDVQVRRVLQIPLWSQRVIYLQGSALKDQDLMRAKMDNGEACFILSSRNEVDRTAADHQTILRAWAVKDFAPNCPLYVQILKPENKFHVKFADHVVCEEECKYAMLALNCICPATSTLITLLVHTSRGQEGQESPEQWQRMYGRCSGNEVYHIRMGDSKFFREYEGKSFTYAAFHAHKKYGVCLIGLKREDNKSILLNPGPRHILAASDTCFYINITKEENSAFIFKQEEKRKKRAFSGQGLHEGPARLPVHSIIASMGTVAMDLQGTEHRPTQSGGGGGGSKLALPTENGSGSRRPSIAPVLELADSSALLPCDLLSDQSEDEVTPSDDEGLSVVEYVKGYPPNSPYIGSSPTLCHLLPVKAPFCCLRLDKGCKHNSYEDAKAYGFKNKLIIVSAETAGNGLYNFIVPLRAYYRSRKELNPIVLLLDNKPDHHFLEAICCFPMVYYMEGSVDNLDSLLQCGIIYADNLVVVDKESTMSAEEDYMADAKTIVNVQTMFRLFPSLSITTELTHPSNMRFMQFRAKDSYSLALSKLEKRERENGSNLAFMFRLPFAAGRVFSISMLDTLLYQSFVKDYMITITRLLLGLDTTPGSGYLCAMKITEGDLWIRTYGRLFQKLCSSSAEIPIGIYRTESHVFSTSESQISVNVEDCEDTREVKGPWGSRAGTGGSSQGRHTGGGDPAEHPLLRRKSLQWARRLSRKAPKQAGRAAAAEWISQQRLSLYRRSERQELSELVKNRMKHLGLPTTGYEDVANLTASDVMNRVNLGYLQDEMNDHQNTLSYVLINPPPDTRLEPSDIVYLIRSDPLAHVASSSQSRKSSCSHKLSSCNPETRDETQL
Nature of the data set: Whole-cell patch-clamp recordings in HEK-Slack cells. It is filed as cell-based. Conditions: 25 µM. The protocol: Next, we verified Slack activation by the new compounds using whole‐cell patch‐clamp recordings in HEK‐Slack cells. […] At a holding potential of −70 mV, a series of 500 ms‐long test pulses ranging from −120 to +120 mV in intervals of 20 mV were applied.^[ [16] ^]
HEK‐Slack cells were plated onto poly‐D‐lysine‐coated (100 µg mL^−1, Sigma–Aldrich) coverslips 1 day before experiments and cultured in DMEM containing 10% FBS and 1% penicillin/streptomycin in 5% CO2 at 37 °C. Whole‐cell voltage‐clamp recordings were acquired using an EPC 9 amplifier combined with Patchmaster software (HEKA Electronics, Lambrecht/Pfalz, Germany). Currents were sampled at 20 kHz and filtered at 5 kHz. Data analysis was performed using the Fitmaster software (HEKA Electronics). Membrane potential was held at −70 mV and outward K^+ current (IK) was evoked by depolarizing steps (500 ms duration) ranging from −120 to +120 mV in increments of 20 mV. The pipette solution contained 140 mM KCl, 2 mM MgCl2, 5 mM EGTA, and 10 mM HEPES and was adjusted to pH 7.4 with KOH. The extracellular solution contained 140 mM NaCl, 5 mM KCl, 2 mM CaCl2, 2 mM MgCl2, and 10 mM HEPES and was adjusted to pH 7.4 with NaOH. […] The fold‐increase values in the patch‐clamp experiments were determined by calculating […]. […]
Background: The patch-clamp technique gives a direct electrical read-out from membranes.

Data set [3] concerns mice. Nature of the data set: Hargreaves test. It is filed as in vivo. Conditions: 10 mg kg−1 i.p., hindpaws, vs vehicle. How it is done:
An infrared heat source (intensity set to 25) was applied to the plantar surface of the hind paw, and the time until the animal elicited a withdrawal response was determined. Each hind paw was measured 4–5 times with a minimum interval of 20 s between measurements, and the mean value was calculated. Measurements that reached the cutoff time (20 s) were excluded.

In the case of `O=C(O)COCCN1CCN(C2=Nc3ccccc3Oc3ccc(Cl)cc32)CC1` [Compound 6], the “mechanical sensitivity (von Frey filament test)” value with mice [1] is given as “Neither mechanical nor thermal sensitivity was altered”. Also, the “impairment of mouse behavior” value with mice [2] (10 mg kg−1 i.p.) was “No obvious impairment of mouse behavior”. Also, in the data set with mice [2] (systemic administration, doses up to 30 mg kg−1), the “overt signs of seizures” value is “did not observe any overt signs of seizures”. Further, the “increase in current densities” value on human Slack (10 mM pipette Na+) is “more pronounced”. The “current densities compared to baseline” value at human Slack (Na+-free pipette solution) was “increased the current densities compared to baseline”. In addition, the “thermal sensitivity (Hargreaves test)” value with mice [3] is reported as “Neither mechanical nor thermal sensitivity was altered”.
